From patent publication US12098144B2, “Piperazine indazole glucocorticoid receptor antagonists” (Corcept Therapeutics Incorporated, priority 2021, dated 2024)

The molecules below were run against T1, glucocorticoid receptor (Homo sapiens, UniProt P04150) (assay: Hep G2 TAT Ki: inhibition of dexamethasone-induced TAT in HepG2 cells (96 well)). Settings: challenge of 100 nM dexamethasone, IC50 converted to Ki by Cheng and Prusoff equation.
T1 construct: endogenous in cells; ATCC cat
T1 sequence (P04150 1-777): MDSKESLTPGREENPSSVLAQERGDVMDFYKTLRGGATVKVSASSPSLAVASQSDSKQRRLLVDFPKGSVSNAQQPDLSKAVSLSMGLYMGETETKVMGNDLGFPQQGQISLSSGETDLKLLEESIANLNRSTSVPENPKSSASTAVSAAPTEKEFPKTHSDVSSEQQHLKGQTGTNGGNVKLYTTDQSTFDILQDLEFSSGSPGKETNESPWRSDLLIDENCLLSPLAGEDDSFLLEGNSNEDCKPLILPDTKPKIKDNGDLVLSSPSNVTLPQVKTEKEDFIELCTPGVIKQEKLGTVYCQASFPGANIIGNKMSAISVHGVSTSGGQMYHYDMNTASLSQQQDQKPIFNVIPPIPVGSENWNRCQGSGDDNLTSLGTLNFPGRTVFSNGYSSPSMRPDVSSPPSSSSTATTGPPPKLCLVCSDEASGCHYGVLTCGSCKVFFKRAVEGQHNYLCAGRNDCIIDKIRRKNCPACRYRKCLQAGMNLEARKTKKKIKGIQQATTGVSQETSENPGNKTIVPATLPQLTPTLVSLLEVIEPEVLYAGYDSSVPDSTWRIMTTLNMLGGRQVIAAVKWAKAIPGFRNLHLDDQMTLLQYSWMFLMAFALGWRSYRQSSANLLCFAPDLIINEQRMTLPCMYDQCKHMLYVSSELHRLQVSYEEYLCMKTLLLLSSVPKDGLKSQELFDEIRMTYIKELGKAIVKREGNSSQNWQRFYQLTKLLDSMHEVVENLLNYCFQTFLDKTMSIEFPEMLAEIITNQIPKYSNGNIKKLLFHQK
Type: cell-based
Summary of the method: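 Cells lysed 15 min at 4 °C; TAT enzyme reaction 2 h at 37 °C, stopped with KOH, 30 min further at 37 °C. Inhibition fitted to 4-parameter logistic.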

Ki	SMILES
0.044 µM	Cc1cc2c(cnn2-c2ccc(F)cc2)cc1C1CN(S(=O)(=O)c2cnn(C)n2)CCN1CC(C)(C)C(F)(F)F (single isomer, unassigned) [Example 163, 1-(4-fluorophenyl)-6-methyl-5-(4-((2-methyl-2H-1,2,3-triazol-4-yl)sulfonyl)-1-(3,3,3-trifluoro-2,2-dimethylpropyl)piperazin-2-yl)-1H-indazole]
0.064 µM	Cc1cc2c(cnn2-c2ccc(F)cc2)cc1C1CN(S(=O)(=O)CC2CCOCC2)CCN1CC(C)C (single isomer, unassigned) [Example 61, 1-(4-fluorophenyl)-5-(1-isobutyl-4-(((tetrahydro-2H-pyran-4-yl)methyl)sulfonyl)piperazin-2-yl)-6-methyl-1H-indazole]
0.028 µM	COCCS(=O)(=O)N1CCN(CC(C)C)C(c2cc3cnn(-c4ccc(F)cc4)c3cc2C)C1 (single isomer, unassigned) [Example 60, 1-(4-fluorophenyl)-5-(1-isobutyl-4-((2-methoxyethyl)sulfonyl)piperazin-2-yl)-6-methyl-1H-indazole]
0.024 µM	Cc1cc2c(cnn2-c2ccc(F)cc2)cc1[C@@H]1CN(S(=O)(=O)c2cnn(C)n2)CCN1C[C@H]1C[C@@H](O)C1 (racemic) [Example 154, 3-((2-(1-(4-fluorophenyl)-6-methyl-1H-indazol-5-yl)-4-((2-methyl-2H-1,2,3-triazol-4-yl)sulfonyl)piperazin-1-yl)methyl)cyclobutan-1-ol]
0.019 µM	Cc1cc2c(cnn2-c2ccc(F)cc2)cc1C1CN(S(=O)(=O)c2ccccn2)CCN1CC(C)C(F)(F)F (single isomer, unassigned) [Example 150, 1-(4-fluorophenyl)-6-methyl-5-(4-(pyridin-2-ylsulfonyl)-1-(3,3,3-trifluoro-2-methylpropyl)piperazin-2-yl)-1H-indazole]
0.035 µM	Cc1cc2c(cnn2-c2ccc(F)cc2)cc1C1CN(S(=O)(=O)C2CCC2)CCN1CC(C)C(F)(F)F (single isomer, unassigned) [Example 151, 5-(4-(cyclobutylsulfonyl)-1-(3,3,3-trifluoro-2-methylpropyl)piperazin-2-yl)-1-(4-fluorophenyl)-6-methyl-1H-indazole]
0.041 µM	Cc1cc2c(cnn2-c2ccc(F)cc2)cc1C1CN(S(=O)(=O)N2CCOCC2)CCN1CC(C)C (single isomer, unassigned) [Example 53, 4-((3-(1-(4-fluorophenyl)-6-methyl-1H-indazol-5-yl)-4-isobutylpiperazin-1-yl)sulfonyl)morpholine]
0.51 µM	COCCS(=O)(=O)N1CCN(CC(C)C)C(c2cc3cnn(-c4ccc(F)cc4)c3cc2C)C1 (single isomer, unassigned) [Example 45, 1-(4-fluorophenyl)-5-(1-isobutyl-4-((2-methoxyethyl)sulfonyl)piperazin-2-yl)-6-methyl-1H-indazole]
0.076 µM	Cc1cc2c(cnn2-c2ccc(F)cc2)cc1C1CN(S(=O)(=O)c2cncc(F)c2)CCN1CC(C)C (stereo not drawn) [Example 43, 1-(4-fluorophenyl)-5-(4-((5-fluoropyridin-3-yl)sulfonyl)-1-isobutylpiperazin-2-yl)-6-methyl-1H-indazole]

The molecules below were run against T1, glucocorticoid receptor (assay: Hep G2 TAT IC50: inhibition of dexamethasone-induced TAT in HepG2 cells (384 well)). Settings: not given.
Type: cell-based
Method: Glucocorticoid mediated activation of TAT occurs by transactivation of glucocorticoid response elements in the TAT promoter by glucocorticoid receptor/agonist complex.
HepG2 cells were cultured using MEME media supplemented with 10% (v/v) foetal bovine serum, 2 mM L-glutamine, 1% (v/v) NEAA, and 1% (v/v) penstrep, at 37° C., 5%/95% (v/v) CO2/air.
Compounds were diluted from a 10 mM stock via an Echo Acoustic liquid handler into 10 μL assay media to generate a 10-point half-log dilution curve.
HepG2 cells were then lysed with 8 μL of cell lysis buffer containing a protease inhibitor cocktail for 15 minutes at 25° C. […] After a 2-hour incubation at 37° C. the reaction was terminated by the addition of 8 μL of 5 M aqueous potassium hydroxide solution, and the plates incubated for a further 30 minutes at 37° C.
[compound] and fitting the data to a 4-parameter logistic equation.

IC50	SMILES
2.79 µM	COc1cc2c(cnn2-c2ccc(F)cc2)cc1C1CN(S(=O)(=O)N2CCOCC2)CCN1CC1CC(F)(F)C1 (stereo not drawn) [Example 193, 4-(4-((3,3-difluorocyclobutyl)methyl)-3-(1-(4-fluorophenyl)-6-methoxy-indazol-5-yl)piperazin-1-yl)sulfonylmorpholine]
3.43 µM	Cc1cc2c(cnn2-c2ccc(F)cc2)cc1C1CN(S(=O)(=O)N2CCOCC2)CCN1CC1CCC1 (single isomer, unassigned) [Example 178, 4-(4-(cyclobutylmethyl)-3-[1-(4-fluorophenyl)-6-methyl-indazol-5-yl]piperazin-1-yl)sulfonylmorpholine]
0.253 µM	Cc1cc2c(cnn2-c2cc(C)c(=O)n(C)c2)cc1C1CN(S(=O)(=O)c2ccccn2)CCN1CCC(F)(F)F (stereo not drawn) [Example 195, 1,3-dimethyl-5-(6-methyl-5-(4-(2-pyridylsulfonyl)-1-(3,3,3-trifluoropropyl)piperazin-2-yl)indazol-1-yl)pyridin-2-one]
1.03 µM	Cc1cc2c(cnn2-c2ccc(F)c(CO)c2)cc1C1CN(S(=O)(=O)c2cnn(C)n2)CCN1CCC(F)(F)F (stereo not drawn) [Example 202, (2-fluoro-5-(6-methyl-5-(4-(2-methyltriazol-4-yl)sulfonyl-1-(3,3,3-trifluoropropyl)piperazin-2-yl)indazol-1-yl)phenyl)methanol]
2.02 µM	Cc1cc2c(cnn2-c2ccc(F)cc2)cc1C1CN(S(=O)(=O)N2CCOCC2)CCN1CC1CC(F)(F)C1 (single isomer, unassigned) [Example 179, 4-(4-((3,3-difluorocyclobutyl)methyl)-3-(1-(4-fluorophenyl)-6-methyl-indazol-5-yl)piperazin-1-yl)sulfonylmorpholine]
1.07 µM	Cc1cc2c(cnn2-c2ccc(F)cc2)cc1C1CN(S(=O)(=O)c2cccnn2)CCN1CC(C)C (single isomer, unassigned) [Example 190, 1-(4-fluorophenyl)-5-(1-isobutyl-4-pyridazin-3-ylsulfonyl-piperazin-2-yl)-6-methyl-indazole]
2.24 µM	COc1cc2c(cnn2-c2ccc(F)cc2)cc1C1CN(S(=O)(=O)N(C)C)CCN1CC1CC(F)(F)C1 (stereo not drawn) [Example 213, 4-((3,3-difluorocyclobutyl)methyl)-3-(1-(4-fluorophenyl)-6-methoxy-indazol-5-yl)-N,N-dimethyl-piperazine-1-sulfonamide]
2.09 µM	Cc1cc2c(cnn2-c2ccc(F)cc2)cc1C1CN(S(=O)(=O)N2CCOCC2)CCN1CC1CCCC1 (single isomer, unassigned) [Example 180, 4-(4-(cyclopentylmethyl)-3-(1-(4-fluorophenyl)-6-methyl-indazol-5-yl)piperazin-1-yl)sulfonylmorpholine]
1.32 µM	Cc1cc2c(cnn2-c2ccccc2)cc1C1CN(S(=O)(=O)c2cnn(C)n2)CCN1CCC(F)(F)F (stereo not drawn) [Example 199, 6-methyl-5-(4-(2-methyltriazol-4-yl)sulfonyl-1-(3,3,3-trifluoropropyl)piperazin-2-yl)-1-phenyl-indazole]
2.66 µM	Cc1cc2c(cnn2-c2ccc(F)cc2)cc1C1CN(S(=O)(=O)N(C)C)CCN1CC1CC(F)(F)C1 (single isomer, unassigned) [Example 183, 4-((3,3-difluorocyclobutyl)methyl)-3-(1-(4-fluorophenyl)-6-methyl-indazol-5-yl)-N,N-dimethyl-piperazine-1-sulfonamide]
3.59 µM	Cc1cc2c(cnn2-c2ccc(F)cc2)cc1C1CN(S(=O)(=O)N(C)C)CCN1CC1CCC1 (single isomer, unassigned) [Example 182, 4-(cyclobutylmethyl)-3-(1-(4-fluorophenyl)-6-methyl-indazol-5-yl)-N,N-dimethyl-piperazine-1-sulfonamide]
2.46 µM	Cc1cc2c(cnn2-c2ccc(F)cc2)cc1C1CN(S(=O)(=O)N2CCOCC2)CCN1CCC(F)(F)F (single isomer, unassigned) [Example 177, 4-(3-(1-(4-fluorophenyl)-6-methyl-indazol-5-yl)-4-(3,3,3-trifluoropropyl)piperazin-1-yl)sulfonylmorpholine]
1.66 µM	Cc1cc2c(cnn2-c2ccc(F)cc2)cc1C1CN(S(=O)(=O)N(C)C)CCN1CCC(F)(F)F (single isomer, unassigned) [Example 181, 3-(1-(4-fluorophenyl)-6-methyl-indazol-5-yl)-N,N-dimethyl-4-(3,3,3-trifluoropropyl)piperazine-1-sulfonamide]
3.13 µM	CN(C)S(=O)(=O)N1CCN(CCC(F)(F)F)C(c2cc3cnn(-c4ccc(F)cc4)c3cc2Cl)C1 (stereo not drawn) [Example 209, 3-(6-chloro-1-(4-fluorophenyl)indazol-5-yl)-N,N-dimethyl-4-(3,3,3-trifluoropropyl)piperazine-1-sulfonamide]
0.933 µM	Cc1cc2c(cnn2-c2cc(F)c(=O)n(C)c2)cc1C1CN(S(=O)(=O)c2cnn(C)n2)CCN1CCC(F)(F)F (stereo not drawn) [Example 207, 3-fluoro-1-methyl-5-(6-methyl-5-(4-(2-methyltriazol-4-yl)sulfonyl-1-(3,3,3-trifluoropropyl)piperazin-2-yl)indazol-1-yl)pyridin-2-one]
